{"source": "patent US20210292755A1", "about": "“NOVEL DOUBLE-STRANDED OLIGONUCLEOTIDES FOR THE TREATMENT OF CANCER” (SELEXEL, priority 2016, published 2021)", "key": {"C4-2 cells": {"tested_on": "C4-2 cells", "assay": "WST1 cell viability test", "format": "cell-based, human", "method": "(§1) All the cells used in the following examples are human cells and express H2AX.\n(§2) The cells are cultured in DMEM or RPMI supplemented with 10% fetal calf serum, or as recommended by the ATCC. When indicated, they are transfected with siRNA using lipofectamine (Life Technologies), following the supplier's protocol. The number of living cells after the indicated treatments was quantified by measuring their metabolic activity by the WST1 test according to the supplier's indications (Roche)."}, "MDA MB231 cells": {"tested_on": "MDA MB231 cells", "assay": "WST1 cell viability test", "format": "cell-based, human", "conditions": "for cell viability, siRNA combined with etoposide: 40 μl of etoposide added 24 hours after transfection, WST1 48 h later", "method": "as §1, §2"}, "AR-encoding mRNA": {"tested_on": "AR-encoding mRNA", "assay": "RT-qPCR of AR-encoding mRNA after siRNA transfection", "format": "cell-based, human", "conditions": "for AR mRNA expression: both lines", "method": "as §1, §2\n(§3) The effect of siRNA transfection and/or treatments by different chemotherapeutic agents on gene expression was measured: • by RT-qPCR quantification of mRNAs extracted by a conventional phenol-chloroform method (Trizol). The amount of RNA was normalized by measuring the cyclophilin A-encoding mRNA which is not regulated by AR (delta delta CT method). • by Western blotting on protein extracts. The antibodies used are: AR: Santacruz, N-20 sc-816; H2AX: Merck Millipore ref 07-627; Tubulin: Sigma T6199; Actin: Merck Millipore MAB 1501; γH2AX: Merck Millipore 05-636. […] The antibodies used are the following: γH2AX: Merck Millipore 05-636; 53BP1: Novus, NB 100-304."}, "H2AX-encoding mRNA": {"tested_on": "H2AX-encoding mRNA", "assay": "RT-qPCR of H2AX-encoding mRNA after siRNA transfection", "format": "cell-based, human", "conditions": "for H2AX mRNA expression: both lines", "method": "as §1, §2, §3"}, "[1]": {"tested_on": "22RV1 human prostatic tumor", "assay": "Subcutaneous tumor volume in mice", "format": "in vivo", "conditions": "twice a week", "method": "Tumors are obtained by subcutaneous injection of tumor cells into the flank of Nude mice. Only animals on which tumor uptake is found are included in the study and randomized to receive treatment or control treatment.\nWhen indicated, the continuous administration of siRNA is carried out by implantation of an Alzet osmotic pump subcutaneously on the back of the mice, on the opposite side to the tumor when the mice wear one. The concentration of siRNA in the pump is adjusted to deliver the indicated amount in mg/kg/day taking into account the pump flow rate indicated by the manufacturer.\nThe subcutaneous tumors volume is estimated by measuring with a calliper the largest (D), the smallest (d) diameter of the tumors and their height (h). The volume is calculated by the formula V=D×d×h×Pi/6."}, "22RV1 cells": {"tested_on": "22RV1 cells", "assay": "WST1 cell viability test", "format": "cell-based, human", "conditions": "72 hr after transfection", "method": "as §1, §2"}, "WM266-4 cells": {"tested_on": "WM266-4 cells", "assay": "WST1 cell viability test", "format": "cell-based, human", "conditions": "for cell viability, siRNA combined with etoposide: 40 μl of etoposide added 24 hours after transfection, WST1 48 h later", "method": "as §1, §2"}, "AR": {"tested_on": "AR", "assay": "Western blot of AR after siRNA transfection", "format": "cell-based, human", "conditions": "C4-2 cells, 72 h after transfection", "method": "as §1, §2, §3"}, "γH2AX": {"tested_on": "γH2AX", "assay": "Indirect immunofluorescence of γH2AX, bleomycin-treated transfected cells", "format": "cell-based, human", "method": "(§4) FIG. 8: Immuno detection of γH2AX (first column) and 53BP1 (second column) in C4-2 cells treated for 6 h with bleomycin ([…]) or the vehicle added 72 h after transfection of cells by a control siRNA (Cont), siAR7 siRNA, or siARH2AX-1.\nas §1, §2, §3\n(§5) In the experiment shown in FIG. 8, C4-2 cells were transfected with a control or siARH2AX-1 siRNA. 72 hours after transfection, the cells were then treated for 6 hours with […] of bleomycin or the corresponding vehicle."}, "53BP1": {"tested_on": "53BP1", "assay": "Indirect immunofluorescence of 53BP1, bleomycin-treated transfected cells", "format": "cell-based, human", "conditions": "C4-2 cells transfected with Cont siRNA, 6 hours with 10 μl of bleomycin", "method": "as §4, §1, §2, §3, §5"}, "MDA MB-453 cells": {"tested_on": "MDA MB-453 cells", "assay": "WST1 cell viability test", "format": "cell-based, human", "conditions": "72 hr after transfection", "method": "as §1, §2"}, "U87 cells": {"tested_on": "U87 cells", "assay": "WST1 cell viability test", "format": "cell-based, human", "conditions": "72 hr after transfection", "method": "as §1, §2"}, "H2AX": {"tested_on": "H2AX", "assay": "Western blot of H2AX after siRNA transfection", "format": "cell-based, human", "conditions": "C4-2 cells, 72 h after transfection", "method": "as §1, §2, §3"}, "LNCaP cells": {"tested_on": "LNCaP cells", "assay": "WST1 cell viability test", "format": "cell-based, human", "conditions": "72 hr after transfection", "method": "as §1, §2"}, "PSA-encoding mRNA": {"tested_on": "PSA-encoding mRNA", "assay": "RT-qPCR of PSA-encoding mRNA after siRNA transfection", "format": "cell-based, human", "conditions": "LNCaP or C4-2 cells, both lines, 72 hours after transfection", "method": "as §1, §2, §3\nIn the experiment shown in FIG. 4, the LNCaP or C4-2 tumor cells were transfected with the following siRNAs: Cont, siAR7 or siARH2AX-1."}, "[2]": {"conditions": "C4-2 cells, 48 hours after transfection, relative to control siRNA"}, "[3]": {"conditions": "LNCaP or MDA MB-453 cells, 72 h after transfection"}, "[4]": {"conditions": "LNCaP or C4-2 cells, 72 hours after transfection"}}, "data": [{"molecule": "siAR2: siRNA inhibiting AR described in PCT/FR2002/003843, SEQ ID NO 9 and SEQ ID NO 10 (chain 1 GACUCAGCUGCCCCAUCCACGNN; chain 2 CGUGGAUGGGGCAGCUGAGUCNN; chemistry not fully specified)", "values": [{"measurement": "cell viability", "setting": "C4-2 cells; 90 hours after transfection", "result": "only marginally"}, {"measurement": "cell viability, siRNA combined with bleomycin", "setting": "C4-2 cells; bleomycin (10 μM) added 48 hours after transfection, read 48 hours later, versus chemotherapeutic agent alone", "result": "does not produce a significantly greater viability-inhibiting effect"}, {"measurement": "cell viability, siRNA combined with etoposide", "setting": "C4-2 cells; etoposide (10 μM) added 48 hours after transfection, read 48 hours later, versus chemotherapeutic agent alone", "result": "does not produce a significantly greater viability-inhibiting effect"}, {"measurement": "cell viability", "setting": "MDA MB231 cells; 90 hours after transfection", "result": "only marginally"}, {"measurement": "AR expression (mRNA)", "setting": "AR-encoding mRNA; [2]", "result": "inhibit AR expression in a similar manner"}, {"measurement": "H2AX expression (mRNA)", "setting": "H2AX-encoding mRNA; [2]", "result": "considerably less effective at inhibiting the expression of H2AX"}]}, {"molecule": "COc1cc([C@@H]2c3cc4c(cc3[C@@H](O[C@@H]3O[C@@H]5CO[C@@H](C)O[C@H]5[C@H](O)[C@H]3O)[C@H]3COC(=O)[C@H]23)OCO4)cc(OC)c1O", "note": "[etoposide]", "values": [{"measurement": "tumor development", "setting": "[1]; etoposide 5 mg/kg intraperitoneal", "result": "only slightly inhibits tumor development"}, {"measurement": "tumor development", "setting": "[1]; etoposide 15 mg/kg intraperitoneal", "result": "produces an inhibition"}]}, {"molecule": "siARh: siRNA hybridizing with a sequence of the first exon of AR, not H2AX; SEQ ID NO 11 and 12 (chain 1 UCCCCAAGCCCAUCGUAGANN; chain 2 UCUACGAUGGGCUUGGGGANN; chemistry not fully specified)", "values": [{"measurement": "cell viability / proliferation", "setting": "22RV1 cells", "result": "inhibit the proliferation"}, {"measurement": "cell viability, siRNA combined with etoposide", "setting": "WM266-4 cells", "result": "no amplification of the effects of etoposide"}, {"measurement": "cell viability, siRNA combined with etoposide", "setting": "MDA MB231 cells", "result": "no amplification of the effects of etoposide"}, {"measurement": "AR mRNA expression", "setting": "AR-encoding mRNA; [3]", "result": "inhibits AR"}, {"measurement": "AR protein expression", "setting": "AR", "result": "inhibits AR"}]}, {"molecule": "bleomycin", "values": [{"measurement": "expression of γH2AX", "setting": "γH2AX; C4-2 cells transfected with Cont siRNA, 6 hours with 10 μl of bleomycin", "result": "strongly increases"}, {"measurement": "53BP1 labeling", "setting": "53BP1", "result": "becomes punctiforme"}]}, {"molecule": "siH2AX: siRNA hybridizing with H2AX mRNA but not with that of AR; SEQ ID NO 15 and 16 (chain 1 CUGGAAUUCUGCAGCUAACNN; chain 2 GUUAGCUGCAGAAUUCCAGNN; chemistry not fully specified)", "values": [{"measurement": "cell viability / proliferation", "setting": "MDA MB-453 cells", "result": "has little effect on cell proliferation"}, {"measurement": "cell viability / proliferation", "setting": "22RV1 cells", "result": "has little effect on cell proliferation"}, {"measurement": "cell viability, siRNA combined with etoposide", "setting": "WM266-4 cells", "result": "no amplification of the effects of etoposide"}, {"measurement": "cell viability / proliferation", "setting": "WM266-4 cells; 72 hr after transfection", "result": "has little effect on cell proliferation"}, {"measurement": "cell viability, siRNA combined with etoposide", "setting": "MDA MB231 cells", "result": "no amplification of the effects of etoposide"}, {"measurement": "cell viability / proliferation", "setting": "MDA MB231 cells; 72 hr after transfection", "result": "has little effect on cell proliferation"}, {"measurement": "cell viability / proliferation", "setting": "U87 cells", "result": "has little effect on cell proliferation"}, {"measurement": "H2AX mRNA expression", "setting": "H2AX-encoding mRNA; [3]", "result": "inhibits H2AX"}, {"measurement": "H2AX protein expression", "setting": "H2AX", "result": "inhibits H2AX"}]}, {"molecule": "siAR7: siRNA hybridizing with a sequence of the 7th exon of AR, not H2AX; SEQ ID NO 13 and 14 (chain 1 AAUGAUACGAUCGAGUUCCNN; chain 2 GGAACUCGAUCGUAUCAUUNN; chemistry not fully specified)", "values": [{"measurement": "cell viability / proliferation", "setting": "LNCaP cells", "result": "inhibit the proliferation"}, {"measurement": "cell viability / proliferation", "setting": "C4-2 cells; 72 hr after transfection", "result": "inhibit the proliferation"}, {"measurement": "AR mRNA expression", "setting": "AR-encoding mRNA; [4]", "result": "inhibit the expression of AR and PSA"}, {"measurement": "γH2AX labeling after bleomycin", "setting": "γH2AX; siRNA-transfected C4-2 cells, 72 hours after transfection, bleomycin 6 hours", "result": "increase in γH2AX labeling"}, {"measurement": "PSA mRNA expression", "setting": "PSA-encoding mRNA", "result": "inhibit the expression of AR and PSA"}, {"measurement": "H2AX mRNA expression", "setting": "H2AX-encoding mRNA; [4]", "result": "only siARH2AX-1 also inhibits the expression of H2AX"}]}]}
